Source: patent publication US11376259B2, “Targeted treatment of mature T-cell lymphoma” (Eli Lilly and Company, priority 2016, dated 2022)

Experiments:
[1] = Atropisomer equilibrium in solution by 1H NMR and LC-MS; type: physicochemical; settings: ambient temperature, after 24 hours
Description: In aqueous solutions, 8-9% of atropisomer 2 (minor atropisomer) is detected by ^1H NMR and LC-MS in equilibrium with atropisomer 1 (major atropisomer) at ambient temperature after 24 hours. In organic solvents, at ambient temperature after 24 hours, approximately 1-2% of atropisomer 2 is detected by ^1H NMR and LC-MS in equilibrium with atropisomer 1. Although detectable by ^1H NMR and LC-MS analysis, atropisomer 2 is not isolable.

[2] = test system: AITL; assay: Clinical evaluation in patients with relapsed or refractory peripheral T-cell lymphoma (AITL patients); type: in vivo, human; settings: cycle 1, oral capsules T.I.W., preliminary data
Source text: (§1) A study of 4,4,4-Trifluoro-N-[(1S)-2-[[(7S)-5-(2-hydroxyethyl)-6-oxo-7H-pyrido[2,3-d][3]benzazepin-7-yl]amino]-1-methyl-2-oxo-ethyl]butanamide hydrate in patients with advanced or metastatic cancer.
(§2) This study is a multicenter, nonrandomized, open-label, dose-escalation study followed by cohort expansion of oral dosed 4,4,4-trifluoro-N-[(1S)-2-[[(7S)-5-(2-hydroxyethyl)-6-oxo-7H-pyrido[2,3-d][3]benzazepin-7-yl]amino]-1-methyl-2-oxo-ethyl]butanamide hydrate in outpatients with advanced or metastatic cancer.
Cohort expansion of oral 4,4,4-trifluoro-N-[(1S)-2-[[(7S)-5-(2-hydroxyethyl)-6-oxo-7H-pyrido[2,3-d][3]benzazepin-7-yl]amino]-1-methyl-2-oxo-ethyl]butanamide hydrate in outpatients with advanced or metastatic cancer. Patients will be entered based on screened molecular alterations related to the Notch pathway. Patients initially dosed with 75 mg/dose administered T.I.W. are dose-reduced to 50 mg/dose administered T.I.W. […]
(§3) Efficacy: Efficacy will be assessed using Response Evaluation Criteria in Solid Tumors (RECIST) v1.1 or using the Cheson et al., J. Clin. Oncol., 2007, 25(5): 579-586, response criteria for lymphoma. Each patient will be assessed by 1 or more of the following radiologic tests for tumor measurement: X-ray computerized tomography (CT) scan; magnetic resonance imaging (MRI); chest X-ray; positron emission tomography (PET) scan; dynamic contrast enhanced-magnetic resonance imaging (DCE-MRI); PET/CT imaging Standardized Uptake Values (SUVMAX); Dynamic Contrast-Enhanced Ultrasonography (DCE-US).
Each patient's full extent of disease will also be assessed with: applicable tumor measurement by RECIST 1.1 (Eisenhauer et al., Eur J Cancer. 2009, 45(2): 228-247); Cheson et al., J. Clin. Oncol., 2007, 25(5): 579-586; and Choi et al., J Clin Oncol. […] To confirm objective responses, all lesions should be radiologically assessed, and the same radiologic method used for the initial response determination should be repeated at least 4 weeks following the initial observation of an objective response, using the sample method that was used at baseline. […]

[3] = test system: PTCL-NOS; assay: Clinical evaluation in patients with relapsed or refractory peripheral T-cell lymphoma (PTCL-NOS patient); type: in vivo, human; settings: Patient 3, PTCL-NOS, cycle 1, oral capsules T.I.W., preliminary data
Source text: as §1
as §2, with “cancer. […]” for “cancer.”
as §3
Each patient's full extent of disease will also be assessed with: applicable tumor measurement by RECIST 1.1 (Eisenhauer et al., Eur J Cancer. 2009, 45(2): 228-247); Cheson et al., J. Clin. Oncol., 2007, 25(5): 579-586; and Choi et al., J Clin Oncol. […]

| SMILES | atropisomer 2 (minor atropisomer) detected in equilibrium with atropisomer 1 ([1]; aqueous solutions) | atropisomer 2 (minor atropisomer) detected in equilibrium with atropisomer 1 ([1]; organic solvents) | CT Scan assessment: Tumor decrease ([2]; Patient 1, AITL) | PET Scan (response) ([2]; Patient 1, AITL) | CT Scan assessment: Tumor decrease ([2]; Patient 2, AITL) | CT Scan assessment [3] | Other assessments: Abnormal T cells [3] |
| --- | --- | --- | --- | --- | --- | --- | --- |
| C[C@H](NC(=O)CCC(F)(F)F)C(=O)N[C@@H]1C(=O)N(CCO)c2ncccc2-c2ccccc21 [Compound 1, 4,4,4-trifluoro-N-[(1S)-2-[[(7S)-5-(2-hydroxyethyl)-6-oxo-7H-pyrido[2,3-d][3]benzazepin-7-yl]amino]-1-methyl-2-oxo-ethyl]butanamide] | 8-9% | 1-2% | – | – | – | – | – |
| C[C@H](NC(=O)CCC(F)(F)F)C(=O)N[C@@H]1C(=O)N(CCO)c2ncccc2-c2ccccc21 [4,4,4-trifluoro-N-[(1S)-2-[[(7S)-5-(2-hydroxyethyl)-6-oxo-7H-pyrido[2,3-d][3]benzazepin-7-yl]amino]-1-methyl-2-oxo-ethyl]butanamide hydrate] | – | – | of 80% | Partial | of 20% | Stable | Decrease of |
